Results as given in US8110605B2, “Compound for inactivating viruses and bacteria and method of making same” (priority 2009, dated 2012).
Values joined by “and” are separate entries in the source; they are usually repeats but may differ in a detail not shown here. Equal entries are not always repeated. Where two headings read alike, the source gives them in different places.

Key:
[1] = tested on: Tamiflu™-resistant strain H1N1 influenza virus (A/TW/066/09); format: cell-based
[2] = tested on: Tamiflu™-resistant H1N1 subtype influenza virus (A/TW/066/09) virions

## O=C(O)C(CCCCCCCCCCS)C(=O)O [2-(10-mercaptodecyl)-propanedioic acid]
[1]
  concentration protecting cells against infection by Tamiflu-resistant H1N1 influenza virus (as low as): 30 ppm
[1]; 3 ppm
  CPE, Tamiflu-resistant H1N1 influenza virus treated with compound: +
[1]; 30 ppm
  CPE, Tamiflu-resistant H1N1 influenza virus treated with compound: −
[1]; 100 ppm
  CPE, Tamiflu-resistant H1N1 influenza virus treated with compound: −
[1]; 300 ppm
  CPE, Tamiflu-resistant H1N1 influenza virus treated with compound: −
[1]; 1,000 ppm
  CPE, Tamiflu-resistant H1N1 influenza virus treated with compound: CTX
[1]; 3,000 ppm
  CPE, Tamiflu-resistant H1N1 influenza virus treated with compound: CTX
[2]
  maximum height of particles (AFM cursor profile): ~6.95 nm and ~5.28 nm
  viral morphology by AFM: disrupted and somewhat flattened
[2]; 30 ppm
  calculated RMS height of treated particles: 7.09±0.42 nm
[2]; 300 ppm
  calculated RMS height of treated particles: 5.39±0.23 nm
